From US20090118258A1, “COMBINATION THERAPY COMPRISING ANGIOTENSIN CONVERTING ENZYME INHIBITORS AND VASOPRESSIN RECEPTOR ANTAGONISTS” (priority 2007, published 2009)

Columns and labels:
rat remnant kidney model [1] = test: Rat remnant kidney model of nephropathy (renal mass reduction, RMR); format: in vivo; settings: for serum creatinine / urine protein: 1 and 2 months of treatment, Compound 1 10 and 30 mg/kg/d, FIG. 1; for serum creatinine / urine protein / percentage of sclerotic glomeruli: combination enalapril + Compound 1 30 mg/kg/d; for number of ED 1 positive cells per field (monocytes/macrophages in renal interstitium): termination, vehicle 63±4; for percentage of sclerotic glomeruli: renal histology at termination, Compound 1 10 or 30 mg/kg/d, enalapril, FIG. 2
Description: The rat remnant kidney model is an animal model of severe progressive renal failure. In this model, a state of severe progressive renal failure is produced by renal mass reduction (RMR) through removal of one kidney and ligation of several branches of the renal artery, resulting in infarction and loss of function of two thirds of the remaining kidney. The procedure creates the conditions of severe hypertension, proteinuria, progressive renal function deterioration, tubulointerstitial damage and glomerulosclerosis (Olson J L, Hostetter T H, Rennke H G, Brenner B M, Venkatachalam M A: “Altered glomerular permselectivity and progressive sclerosis following extreme ablation of renal mass”. Kidney Int 22:112-126, 1982).
Nephropathy is evident as a progressively increasing amount of protein in urine, increases in serum creatinine and increases in arterial pressure. In addition, severe sclerosis of the glomeruli, inflammatory cell infiltration and tubular damage are measurable through histological analysis within 3 months of renal mass reduction (RMR). These measures form the basis for determining efficacy in the model. Urine protein, serum creatinine and arterial pressure are similarly measured in humans to determine impact of treatments on disease progression.
The aim of this study was to evaluate the effects of Compound 1 compared to an ACE inhibitor (enalapril), as well as the combination treatment with Compound 1 and enalapril, on proteinuria and renal disease progression in this model. The effectiveness of these agents has been associated with reductions in proteinuria, slowing of the rate of rise in serum creatinine and reduction in glomerular sclerosis and thus slowing of the progression to end stage renal failure.
(§1) Treatments were started 21 days after RMR, when animals already had overt nephropathy. Treatment groups (n=8/group, except enalapril n=7) included vehicle; Compound 1 at 10 mg/kg/d; Compound 1 at 30 mg/kg/d; enalapril at 15 mg/mL (in drinking water); and enalapril at 15 mg/mL+Compound 1 at 30 mg/kg/d. All compounds were administered in drinking water. An additional sham-operated untreated group was also included. Measurements were made at 21 d after RMR but before treatment, and at one and two months of treatment. […] Since the increased mortality was not dose dependent and was not apparent in the group receiving combination treatment with Compound 1 and enalapril (Table 1), the effect is likely due to chance and the known variability in the severity of renal failure in this model.

rat remnant kidney model [2] = test: Blood pressure in rat remnant kidney model; format: in vivo; settings: Compound 1 10 and 30 mg/kg/d; enalapril; combination enalapril + Compound 1 30 mg/kg/d; FIG. 3
Method: as §1
Blood pressure reduction can contribute to slowing the progression of renal disease in this animal model as well as in humans.

rat remnant kidney model [3] = test: Water intake and diuresis in remnant kidney model; format: in vivo; settings: mean ± S.E.
Method: as §1, with “Treatment groups (n=8/group, except enalapril n=7) included vehicle; Compound 1 at 10 mg/kg/d; Compound 1 at 30 mg/kg/d; enalapril at 15 mg/mL (in drinking water); and enalapril at 15 mg/mL+Compound 1 at 30 mg/kg/d.” left out
(§2) Water intake and diuresis was increased in all treatment groups following RMR (Table 2). […] There were no differences in serum electrolytes in any of the treatment groups at the termination of the experiment (Table 2).

rat remnant kidney model [4] = test: Serum and urine electrolytes in remnant kidney model; format: in vivo; settings: for urinary Na excretion: both doses of Compound 1 (10, 30 mg/kg/d), reduced in vehicle treated RMR rats; for urinary Na excretion / urinary Cl excretion / urinary K excretion: enalapril alone, combination; for urinary Cl excretion / urinary K excretion: both doses of Compound 1, reduced in RMR rats vs control
Method: as §1, §2
Urinary Na excretion was reduced in the vehicle treated RMR rats. […] Urinary K and Cl excretion were reduced in rats with RMR compared to control rats.

[5] = tested on: streptozotocin-induced diabetic rat; test: Streptozotocin-induced diabetic rat model of nephropathy; format: in vivo; settings: for serum albumin concentrations / kidney weight or renal glomerular or mesangial morphology: 30 mg/kg/d; for kidney weight or renal glomerular or mesangial morphology: compared to vehicle treated diabetic rats
Method: The streptozotocin-induced diabetic rat is a model of Type I diabetes that develops early renal dysfunction manifested as increased urine albumin excretion. One week after administration of streptozotocin, 65 mg/kg, i.p., rats were assigned to the following treatment groups: no treatment; Compound 1 at 30 mg/kg/d; or enalapril at 30 mg/kg/d. Both compounds were dosed in drinking water for 12 weeks. Mortality among the treatment groups at 12 weeks was 1/10 in the untreated and Compound 1-treated groups and 3/10 in the enalapril-treated group. As a result of the diabetic state, urine volumes were nearly 10 times that of non-diabetic rats. […] The fraction of filtered sodium and potassium excreted was unaffected by either Compound 1 and enalapril.

Type I diabetic rats = test: Arterial pressure and heart rate in Type I diabetic rats after seven days oral administration; format: in vivo, rat; settings: oral administration for seven days
Method: Oral administration of Compound 1 for seven days in Type I diabetic rats had no effect on mean arterial pressure or heart rate over 48 h in diabetic rats. […] Oral administration of enalapril for seven days had no effect on arterial pressure over 48 h in diabetic rat

db/db mice = format: in vivo; settings: for urinary albumin excretion (in words): 30 mg/kg/d in drinking water for 16 weeks; for mesangial surface area or percentage of glomerular area occupied by mesangium / urine osmolarity: 30 mg/kg/d; for mesangial surface area or percentage of glomerular area occupied by mesangium: compared to vehicle-treated animals; for urine osmolarity: throughout 16 weeks of dosing
Method: Male db/db mice, a genetic model of type 2 diabetes, develop early renal dysfunction manifested as increased urine albumin excretion. At 9 weeks of age diabetes was confirmed by measurement of blood glucose (>300 mg/dL) and animals assigned to one of three treatment groups (n=12/group): untreated, Compound 1, 30 mg/kg/d and enalapril, 30 mg/kg/d. Compounds were dosed in drinking water for 16 weeks. There was no mortality in any of the treatment groups. Body weights for animals were similar at the beginning of the study.

[6] = 1 month of treatment, Compound 1 10 mg/kg/d
[7] = 1 month of treatment, Compound 1 30 mg/kg/d
[8] = 2 month of treatment, Compound 1 10 mg/kg/d
[9] = 2 month of treatment, Compound 1 30 mg/kg/d
[10] = basal (before RMR and treatment), group Compound 1 10 mg/kg/d
[11] = basal (before RMR and treatment), group Compound 1 30 mg/kg/d
[12] = pre-treatment (21 d after RMR), group Compound 1 10 mg/kg/d
[13] = pre-treatment (21 d after RMR), group Compound 1 30 mg/kg/d
[14] = 30 mg/kg/d in drinking water for 12 weeks
[15] = compared to vehicle treated controls
[16] = 1 month of treatment, Enalapril 15 mg/L
[17] = 2 month of treatment, Enalapril 15 mg/L
[18] = basal (before RMR and treatment), group Enalapril 15 mg/L
[19] = pre-treatment (21 d after RMR), group Enalapril 15 mg/L

COc1cc(C(=O)N2CC[C@]3(C=C(C(=O)O)CC3)Cc3ccccc32)ccc1NC(=O)c1cc(F)ccc1Cl [Compound 1]
serum creatinine (rat remnant kidney model [1]; enalapril 15 mg/mL): reduced urine protein and serum creatinine when administered alone but not to the same extent as enalapril | urine protein (rat remnant kidney model [1]; enalapril 15 mg/mL): reduced urine protein and serum creatinine when administered alone but not to the same extent as enalapril | number of ED 1 positive cells per field (monocytes/macrophages in renal interstitium) (rat remnant kidney model [1]; Compound 1 10 mg/kg/d, not statistically significant): 48±4 positive cells per field | number of ED 1 positive cells per field (monocytes/macrophages in renal interstitium) (rat remnant kidney model [1]; Compound 1 30 mg/kg/d, not statistically significant): 49±10 positive cells per field | mortality (in words) (rat remnant kidney model [1]; Compound 1 10 and 30 mg/kg/d alone, combination Compound 1 30 mg/kg/d + enalapril, not dose dependent, judged due to chance): apparent excess mortality | Mortality rate (rat remnant kidney model [1]; rat, in vivo, 10 mg/kg/day, 1 month): 2/8 | Mortality rate (rat remnant kidney model [1]; rat, in vivo, 10 mg/kg/day, 2 months): 4/8 | Mortality rate (rat remnant kidney model [1]; rat, in vivo, 30 mg/kg/day, 1 month): 2/8 | Mortality rate (rat remnant kidney model [1]; rat, in vivo, 30 mg/kg/day, 2 months): 3/8 | percentage of sclerotic glomeruli (rat remnant kidney model [1]): tended to decrease the percentage of sclerotic glomeruli compared with vehicle, but this was not statistically significant | arterial pressure (rat remnant kidney model [2]): significant reductions in arterial pressure compared to vehicle | diuresis (rat remnant kidney model [3]; [6]): 47 ± 2 mL/24 h | water intake (rat remnant kidney model [3]; [6]): 53 ± 9° mL/24 h | diuresis (rat remnant kidney model [3]; [7]): 41 ± 4 mL/24 h | water intake (rat remnant kidney model [3]; [7]): 60 ± 7 mL/24 h | diuresis (rat remnant kidney model [3]; [8]): 43 ± 5 mL/24 h | water intake (rat remnant kidney model [3]; [8]): 62 ± 6 mL/24 h | diuresis (rat remnant kidney model [3]; [9]): 49 ± 8 mL/24 h | water intake (rat remnant kidney model [3]; [9]): 60 ± 16 mL/24 h | diuresis (rat remnant kidney model [3]; [10]): 19 ± 1 mL/24 h | water intake (rat remnant kidney model [3]; [10]): 43 ± 5 mL/24 h | diuresis (rat remnant kidney model [3]; [11]): 19 ± 1 mL/24 h | water intake (rat remnant kidney model [3]; [11]): 47 ± 3 mL/24 h | diuresis (rat remnant kidney model [3]; [12]): 44 ± 3 mL/24 h | water intake (rat remnant kidney model [3]; [12]): 66 ± 5 mL/24 h | diuresis (rat remnant kidney model [3]; [13]): 55 ± 4 mL/24 h | water intake (rat remnant kidney model [3]; [13]): 76 ± 6 mL/24 h | urinary Na excretion (rat remnant kidney model [4]): tended to normalize urinary Na excretion to similar extents | urinary Cl excretion (rat remnant kidney model [4]): tended to normalize urinary K and Cl excretion | urinary K excretion (rat remnant kidney model [4]): tended to normalize urinary K and Cl excretion | fraction of filtered sodium and potassium excreted [5, 14]: unaffected | urine endpoints: daily volume output, osmolarity, chloride, creatinine, sodium or potassium concentrations, clearances or excretion values [5, 14]: not significantly altered | urine albumin excretion ([5]; 30 mg/kg/d in drinking water, compared to vehicle treated controls, FIG. 4): significant decrease | serum albumin concentrations [5, 15]: not statistically significant, serum albumin concentrations increased | kidney weight or renal glomerular or mesangial morphology [5]: no significant effects | urine free water clearance ([5]; Compound 1 30 mg/kg/d): trend toward increased urine free water clearance | serum osmolarity ([5]; Compound 1 30 mg/kg/d, compared to vehicle treated controls): decreased significantly | (mean) arterial pressure over 48 h (Type I diabetic rats): no effect | heart rate over 48 h (Type I diabetic rats): no effect | urinary albumin excretion (in words) (db/db mice; FIG. 5): unaffected | mesangial surface area or percentage of glomerular area occupied by mesangium (db/db mice): No significant differences | urine osmolarity (db/db mice): unaffected by treatment

CCOC(=O)[C@H](CCc1ccccc1)N[C@@H](C)C(=O)N1CCC[C@H]1C(=O)O [Enalapril, enalapril, reference compound]
serum creatinine (rat remnant kidney model [1]; enalapril 15 mg/mL): significantly reduced | urine protein (rat remnant kidney model [1]; enalapril 15 mg/mL): significantly reduced | Mortality rate (rat remnant kidney model [1]; 1 month of treatment, enalapril in drinking water, dead/total): 0/7 | Mortality rate (rat remnant kidney model [1]; 2 month of treatment, enalapril in drinking water, dead/total): 1/7 | number of ED 1 positive cells per field (monocytes/macrophages in renal interstitium) (rat remnant kidney model [1]; enalapril 15 mg/mL, statistically significant reduction): 38±6 positive cells per field | percentage of sclerotic glomeruli (rat remnant kidney model [1]): significant reduction | arterial pressure (rat remnant kidney model [2]): significant reductions in arterial pressure compared to vehicle | diuresis (rat remnant kidney model [3]; [16]): 46 ± 4 mL/24 h | water intake (rat remnant kidney model [3]; [16]): 60 ± 4*° mL/24 h | diuresis (rat remnant kidney model [3]; [17]): 45 ± 3 mL/24 h | water intake (rat remnant kidney model [3]; [17]): 59 ± 6 mL/24 h | diuresis (rat remnant kidney model [3]; [18]): 19 ± 1 mL/24 h | water intake (rat remnant kidney model [3]; [18]): 44 ± 4 mL/24 h | diuresis (rat remnant kidney model [3]; [19]): 46 ± 5 mL/24 h | water intake (rat remnant kidney model [3]; [19]): 66 ± 6 mL/24 h | urinary Na excretion (rat remnant kidney model [4]): tended to normalize urinary Na excretion to similar extents | urinary Cl excretion (rat remnant kidney model [4]): tended to normalize urinary K and Cl excretion | urinary K excretion (rat remnant kidney model [4]): tended to normalize urinary K and Cl excretion | urine chloride ion (Cl−) (rat remnant kidney model [4]; compared to vehicle group): significantly greater than those in the vehicle group | fraction of filtered sodium and potassium excreted [5, 14]: unaffected | urine endpoints: daily volume output, osmolarity, chloride, creatinine, sodium or potassium concentrations, clearances or excretion values [5, 14]: not significantly altered | Mortality at 12 weeks ([5]; 30 mg/kg/d in drinking water for 12 weeks, dead/total, untreated 1/10): 3/10 | serum albumin concentrations [5, 15]: not statistically significant, serum albumin concentrations increased | kidney weight or renal glomerular or mesangial morphology [5]: no significant effects | (mean) arterial pressure over 48 h (Type I diabetic rats): no effect | urinary albumin excretion (in words) (db/db mice; FIG. 5): tended to reduce urine albumin excretion with significant differences observed at 2 weeks and 16 weeks compared to vehicle controls | mesangial surface area or percentage of glomerular area occupied by mesangium (db/db mice): No significant differences | urine osmolarity (db/db mice): unaffected by treatment | albumin excretion in urine (db/db mice; enalapril 30 mg/kg/d in drinking water, over 16 weeks, FIG. 5): ≤ 500 ug/24 h
